Values joined by “and” are separate entries in the source; they are usually repeats but may differ in a detail not shown here. Equal values may be shown once.
Test system: 276233-004-R-J1-PDC complex spheroid viability
Experiment: Anticancer human tumor 276233-004-R-J1-PDC patient-derived colon adenocarcinoma cell line growth inhibition [GQUAD]
Conditions: for viability, T/C: stronger effect = lower value
Source text: DNA G-quadruplex Stabilizer Agents in Combinations in Complex Spheroids
A high-throughput screen of multi-cell type tumor spheroids was designed to identify active combinations of DNA G-quadruplex stabilizer agents and targeted small molecules. Complex spheroids include a stromal component modeled by human endothelial cells (HUVEC) and fibroblasts modeled by human mesenchymal stem cells (MSCs). The concentration ranges selected for each drug and investigational agent were based upon clinically achievable concentrations if the clinical Cmax of the agent was known.
Compounds. The drugs and investigational agents: pidnarulex (CX-5461; NSC782164), APTO-253 (NSC789042), BRACO-19 (NSC847499), peposertib (NSC802822), ceralasertib (NSC780249), elimusertib (NSC800525), camonsertib (NSC841442), AZD-1390 (NSC803789), olaparib (NSC753686), talazoparib (NSC767125), ART-558 (NSC835418), sotorasib (NSC818433), MRTX-1133 (NSC836407), SN-38 (NSC673596), topotecan (NSC609699), etoposide (NSC141540), doxorubicin (NSC123127), gemcitabine (NSC613327), 5-fluorouracil (NSC19893), paclitaxel (NSC125973), vemurafenib (NSC761431), panobinostat (NSC761190), R-306465 (JNJ-16241199; NSC773264), adavosertib (NSC754352), TP-3654 (NSC805149), carboplatin (NSC241240), KSQ-4279 (NSC840948), and staurosporine (NSC755774) were obtained from the National Cancer Institute (NCI) Developmental Therapeutics Program Chemical Repository (34). The FDA-approved anticancer drug set is available from the NCI Developmental Therapeutics Program. […] The stock solutions were prepared in dimethyl sulfoxide (DMSO, Sigma-Aldrich, St. Louis, MO, cat. D2650) at 800-fold the tested concentration and stored at -70 degrees C prior to their use. All drugs and investigational agents were tested over a range starting from a high concentration at or near the clinical Cmax and decreasing in half-log increments. If the clinical Cmax for an agent had not been determined, the highest concentration tested was 10 microM.
2.3 Cell Culture. All cells were maintained in an incubator at 37 degrees C and 5% CO2 with 95% humidity. The PDC lines were cultured according to standard operating procedures established by the NCI PDMR. All PDCs were thawed and cultured in Matrigel-coated flasks prepared with a working solution of 1X Ham's F-12 nutrient mix, without supplementation (Invitrogen, cat. 11765054), 100 U/mL penicillin-streptomycin (Invitrogen, cat. 15140122), and 2.5% Matrigel (Corning Inc., cat. 354248) for the first three passages. The 857933-349-R-J2-PDC line was cultured in 6C/Colon 1B media, which includes advanced DMEM/F-12 (Thermo Fisher Scientific, cat. 12634028), 10 mM HEPES (Thermo Fisher Scientific, cat. 15630080), 1X GlutaMAX supplement (Thermo Fisher Scientific, cat. 35050061), 0.1 mg/mL primocin (InvivoGen, cat. ant-pm-2), 10% defined fetal bovine serum, heat inactivated (HyClone Laboratories Inc., cat. SH30070.03HI), 50% L-WRN conditioned media (ATCC, cat. CRL-3276), 1.25 mM N-Acetyl-L-cysteine (Sigma-Aldrich, cat. A9165), 10 mM nicotinamide (Sigma-Aldrich, cat. N0636), 1X B-27 supplement (Thermo Fisher Scientific, cat. 17504044), 1X N-2 supplement (Thermo Fisher Scientific, cat. 17502048), 10 microM Y-27632 dihydrochloride (Tocris Bioscience, cat. 1254), and 50 ng/mL human EGF recombinant protein (Thermo Fisher Scientific, cat. PHG0311). The 485176-168-R4-J1-PDC line was cultured in Panc media, which includes all 6C/Colon 1B media components plus 100 ng/mL human FGF-10 (Thermo Fisher Scientific, cat. 100-26), 500 nM SB-431542 (Selleckchem, cat. S1067), and gastrin (Tocris, cat. 3006).
[…]
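Also: spheroids exposed to drugs for seven days.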
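For viability, T/C in this document: 100% = DMSO vehicle control viability.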

## C#Cc1c(F)ccc2cc(O)cc(-c3ncc4c(N5CC6CCC(C5)N6)nc(OCC56CCCN5CC(F)C6)nc4c3F)c12 (centres undefined)
Compound 0.0316 µM
  viability, T/C: 92.7% and 70.8% and 78.7%
Compound 0.1 µM
  viability, T/C: 73.1% and 96.4% and 89.9%
Compound 0.316 µM
  viability, T/C: 66.8% and 78.3% and 71.8%
Compound 1 µM
  viability, T/C: 87.9% and 83.5% and 69.9%
Compound 3.16 µM
  viability, T/C: 86.9% and 49.7% and 45.9%
Compound 10 µM
  viability, T/C: 68.2% and 36.4% and 44.5%
Curve of compound
  IC50: > 10 µM and 3.14 µM and 2.93 µM

## C=CC(=O)N1CCN(c2nc(=O)n(-c3c(C)ccnc3C(C)C)c3nc(-c4c(O)cccc4F)c(F)cc23)C(C)C1 (centres undefined)
Compound 0.0316 µM
  viability, T/C: 107% and 92.8% and 91.6%
Compound 0.1 µM
  viability, T/C: 89.2% and 119% and 77.8%
Compound 0.316 µM
  viability, T/C: 102% and 80.8% and 89%
Compound 1 µM
  viability, T/C: 96.7% and 101% and 87.3%
Compound 3.16 µM
  viability, T/C: 98.4% and 92.5% and 85.8%
Compound 10 µM
  viability, T/C: 91.2% and 93.1% and 84.2%
Curve of compound
  IC50: > 10 µM

## C=CCn1c(=O)c2cnc(Nc3ccc(N4CCN(C)CC4)cc3)nc2n1-c1cccc(C(C)(C)O)n1
Compound 0.0316 µM
  viability, T/C: 108% and 106% and 77.9%
Compound 0.1 µM
  viability, T/C: 92.1% and 90.6% and 74.1%
Compound 0.316 µM
  viability, T/C: 70.8% and 73.3% and 90.3%
Compound 1 µM
  viability, T/C: 63.5% and 69.4% and 61.4%
Compound 3.16 µM
  viability, T/C: 73.4% and 78.4% and 80.3%
Compound 10 µM
  viability, T/C: 65.8% and 87.4% and 92.2%
Curve of compound
  IC50: > 10 µM

## CC(=O)O[C@H]1C(=O)[C@@]2(C)[C@H]([C@H](OC(=O)c3ccccc3)[C@]3(O)C[C@H](OC(=O)[C@H](O)[C@@H](NC(=O)c4ccccc4)c4ccccc4)C(C)=C1C3(C)C)[C@]1(OC(C)=O)CO[C@@H]1C[C@@H]2O
Compound 0.0316 µM
  viability, T/C: 84.1% and 80.2% and 104%
Compound 0.1 µM
  viability, T/C: 96.1% and 82.8% and 71.2%
Compound 0.316 µM
  viability, T/C: 82.9% and 80.8% and 85.8%
Compound 1 µM
  viability, T/C: 87.2% and 95.1% and 88.6%
Compound 3.16 µM
  viability, T/C: 99.2% and 101% and 86.8%
Compound 10 µM
  viability, T/C: 76.9% and 80.1% and 86.2%
Curve of compound
  IC50: > 10 µM

## CC(C)(O)C1CCC(Nc2ccc3ncc(-c4cccc(C(F)(F)F)c4)n3n2)CC1 (centres undefined)
Compound 0.0316 µM
  viability, T/C: 82.3% and 80.4% and 95.8%
Compound 0.1 µM
  viability, T/C: 73.1% and 79.5% and 84.1%
Compound 0.316 µM
  viability, T/C: 72.7% and 86.8% and 87.8%
Compound 1 µM
  viability, T/C: 62.9% and 60.6% and 73.3%
Compound 3.16 µM
  viability, T/C: 43.8% and 49.5% and 61%
Compound 10 µM
  viability, T/C: 45.6% and 63.7% and 54.7%
Curve of compound
  IC50: 2.38 µM and > 10 µM

## CC(C)n1c(=O)n(C)c2cnc3cc(F)c(-c4ccc(OCCCN5CCCCC5)nc4)cc3c21
Compound 0.0316 µM
  viability, T/C: 91.9% and 80.4% and 93.2%
Compound 0.1 µM
  viability, T/C: 86.8% and 101% and 78.8%
Compound 0.316 µM
  viability, T/C: 107% and 86.6% and 73.3%
Compound 1 µM
  viability, T/C: 99.4% and 85.9% and 73.2%
Compound 3.16 µM
  viability, T/C: 108% and 84.9% and 95.3%
Compound 10 µM
  viability, T/C: 86.9% and 68.8% and 77%
Curve of compound
  IC50: > 10 µM

## CC1COCCN1c1cc(-c2ccnn2C)c2ccnc(-c3ccn[nH]3)c2n1 (centres undefined)
Compound 0.0316 µM
  viability, T/C: 99.9% and 85.8% and 70.3%
Compound 0.1 µM
  viability, T/C: 85.9% and 83.5% and 72.1%
Compound 0.316 µM
  viability, T/C: 83.8% and 82.2% and 60.7%
Compound 1 µM
  viability, T/C: 68.7% and 82.9% and 70.1%
Compound 3.16 µM
  viability, T/C: 77.7% and 57.3% and 56.7%
Compound 10 µM
  viability, T/C: 58.9% and 53.9% and 47.2%
Curve of compound
  IC50: > 10 µM and 7.41 µM

## CC1COCCN1c1cc(C2(O)CC3CCC(C2)O3)c2cnn(-c3ccn[nH]3)c2n1 (centres undefined)
Compound 0.0316 µM
  viability, T/C: 98% and 89.3% and 74.2%
Compound 0.1 µM
  viability, T/C: 74.3% and 88.6% and 73.8%
Compound 0.316 µM
  viability, T/C: 65.7% and 71% and 68.6%
Compound 1 µM
  viability, T/C: 59.9% and 61.2% and 68.8%
Compound 3.16 µM
  viability, T/C: 56.3% and 54.3% and 63.9%
Compound 10 µM
  viability, T/C: 41.6% and 47.4% and 45.6%
Curve of compound
  IC50: 3.92 µM and 6.86 µM and 7.56 µM

## CC1COCCN1c1cc(C2(S(C)(=N)=O)CC2)nc(-c2ccnc3[nH]ccc23)n1 (centres undefined)
Compound 0.0316 µM
  viability, T/C: 103% (2×) and 89.1%
Compound 0.1 µM
  viability, T/C: 92.5% and 89% and 63%
Compound 0.316 µM
  viability, T/C: 96.4% and 75.8% and 79.6%
Compound 1 µM
  viability, T/C: 93.7% and 76% and 77.1%
Compound 3.16 µM
  viability, T/C: 89.8% and 75.2% and 74.9%
Compound 10 µM
  viability, T/C: 68.3% and 69.6% and 60.1%
Curve of compound
  IC50: > 10 µM

## CCCS(=O)(=O)Nc1ccc(F)c(C(=O)c2c[nH]c3ncc(-c4ccc(Cl)cc4)cc23)c1F
Compound 0.0316 µM
  viability, T/C: 85% and 77.1% and 99.3%
Compound 0.1 µM
  viability, T/C: 91.3% and 96.2% and 84.7%
Compound 0.316 µM
  viability, T/C: 85.8% and 98.6% and 111%
Compound 1 µM
  viability, T/C: 97.5% and 83.7% and 96.3%
Compound 3.16 µM
  viability, T/C: 79.2% and 91% and 121%
Compound 10 µM
  viability, T/C: 56.8% and 59.4% and 76.4%
Curve of compound
  IC50: > 10 µM

## CC[C@@]1(O)C(=O)OCc2c1cc1n(c2=O)Cc2cc3c(CN(C)C)c(O)ccc3nc2-1
Compound 0.000999 µM
  viability, T/C: 102% and 92.8% and 107%
Compound 0.00316 µM
  viability, T/C: 95.6% and 106% and 94.4%
Compound 0.00999 µM
  viability, T/C: 89.3% and 96.7% and 96.9%
Compound 0.0316 µM
  viability, T/C: 97.6% and 112% and 79.8%
Compound 0.0999 µM
  viability, T/C: 97.6% and 102% and 99.8%
Compound 0.316 µM
  viability, T/C: 90.9% and 107% and 98.6%
Curve of compound
  IC50: > 0.316 µM

## CCc1c2c(nc3ccc(O)cc13)-c1cc3c(c(=O)n1C2)COC(=O)[C@]3(O)CC
Compound 0.000999 µM
  viability, T/C: 98.6% and 89.7% and 104%
Compound 0.00316 µM
  viability, T/C: 93.7% and 94.5% and 92.8%
Compound 0.00999 µM
  viability, T/C: 120% and 88.8% and 82.7%
Compound 0.0316 µM
  viability, T/C: 89.3% and 117% and 90.7%
Compound 0.0999 µM
  viability, T/C: 98.1% and 103% and 110%
Compound 0.316 µM
  viability, T/C: 92.2% and 108% and 95.1%
Curve of compound
  IC50: > 0.316 µM

## CN(C)c1ccc(Nc2c3ccc(NC(=O)CCN4CCCC4)cc3nc3cc(NC(=O)CCN4CCCC4)ccc23)cc1
Compound 0.316 µM
  viability, T/C: 65% [middle of 12 runs]
Compound 1 µM
  viability, T/C: 64.4% [middle of 12 runs]
Compound 3.16 µM
  viability, T/C: 61.7% [middle of 12 runs]
Compound 10 µM
  viability, T/C: 49.8% [middle of 12 runs]
Compound alone, run of 02/26/2024
  IC50: > 10 µM and 4.02 µM and 5.57 µM
